The values below come from paper PMC12222587, “A2B adenosine receptor-triggered intracellular calcium mobilization: Cell type-dependent involvement of Gi, Gq, Gs proteins and protein kinase C” (Purinergic Signalling, 2025).

The subject of assay [1] is human erythroleukemia cells. Conditions: cited from earlier work.
In assay [2] the target is T1, A2BAR (Homo sapiens, UniProt P29275).
T1 sequence (P29275 1-332): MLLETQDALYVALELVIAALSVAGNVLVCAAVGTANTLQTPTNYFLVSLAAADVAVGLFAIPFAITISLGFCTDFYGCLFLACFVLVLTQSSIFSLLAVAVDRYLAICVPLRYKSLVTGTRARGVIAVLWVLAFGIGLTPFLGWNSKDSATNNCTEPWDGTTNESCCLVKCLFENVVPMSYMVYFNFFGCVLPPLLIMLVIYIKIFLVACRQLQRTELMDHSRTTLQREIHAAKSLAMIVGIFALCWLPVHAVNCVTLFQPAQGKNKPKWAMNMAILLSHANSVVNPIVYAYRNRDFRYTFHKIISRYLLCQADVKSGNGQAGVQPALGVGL
Description: Intracellular calcium mobilization, T24 bladder cancer cells, native A2BAR (NECA). It is filed as cell-based. (In general: A change in cytosolic calcium serves as a functional read-out for many receptors and channels.)

For a further assay, the target named is β2-adrenergic receptor (Homo sapiens, UniProt P07550). Briefly: Intracellular calcium mobilization, T24 bladder cancer cells, endogenous β2-adrenergic receptor. It is filed as cell-based.
Another assay relates to HMC-1 cells. Conditions: cited from earlier work.
A further assay has as its system A2B adenosine receptor. The arrangement: method as in PMID 26954502. Particulars: CHO cells; FR 300 nM; cited from earlier work.
The target in the next assay is T2, A2AAR (Homo sapiens, UniProt P29274).
T2 construct: host or cells: HEK293
T2 sequence (P29274 whole entry): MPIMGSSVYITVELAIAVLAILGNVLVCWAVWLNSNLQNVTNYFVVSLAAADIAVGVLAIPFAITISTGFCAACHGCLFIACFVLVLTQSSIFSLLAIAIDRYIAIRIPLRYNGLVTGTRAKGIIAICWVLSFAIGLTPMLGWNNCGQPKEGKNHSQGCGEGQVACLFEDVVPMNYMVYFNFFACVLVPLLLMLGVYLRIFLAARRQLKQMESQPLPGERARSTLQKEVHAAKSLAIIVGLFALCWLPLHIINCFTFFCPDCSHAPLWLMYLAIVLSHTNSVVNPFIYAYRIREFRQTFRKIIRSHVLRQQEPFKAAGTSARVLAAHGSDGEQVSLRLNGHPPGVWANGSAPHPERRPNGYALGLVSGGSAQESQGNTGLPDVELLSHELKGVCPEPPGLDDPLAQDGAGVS
Briefly: cAMP accumulation, HEK293 cells, A2AAR-mediated stimulation (CGS21680). It is filed as cell-based. The protocol:
(§1) HEK293, T24 bladder cancer and MDA-MB-231 breast cell lines were cultured in DMEM medium containing 10% fetal bovine serum, 100 units/ml penicillin, 100 μg/ml streptomycin, and 2 μmol/ml glutamine. For the assay of 3′,5′-cyclic adenosine monophosphate (cAMP), cells were plated in 96-well (4 × 10^4 cells/well) clear plates in 100 μl of medium overnight. Cell culture medium was then replaced with 80 µl HBSS buffer containing 20 mM HEPES, phosphodiesterase inhibitor rolipram (10 μM), and 3 units/ml adenosine deaminase (Worthington Biochemical, Lakewood, NJ, USA) for 30 min followed by agonist addition to the mixture, which was then incubated for 20 min. The treatment of YM or FR was 20 min before agonist addition.

Assay [3] has as its target T3, A1AR (Homo sapiens, UniProt P30542).
T3 construct: expressed in transfected cells
T3 sequence (P30542 1-326): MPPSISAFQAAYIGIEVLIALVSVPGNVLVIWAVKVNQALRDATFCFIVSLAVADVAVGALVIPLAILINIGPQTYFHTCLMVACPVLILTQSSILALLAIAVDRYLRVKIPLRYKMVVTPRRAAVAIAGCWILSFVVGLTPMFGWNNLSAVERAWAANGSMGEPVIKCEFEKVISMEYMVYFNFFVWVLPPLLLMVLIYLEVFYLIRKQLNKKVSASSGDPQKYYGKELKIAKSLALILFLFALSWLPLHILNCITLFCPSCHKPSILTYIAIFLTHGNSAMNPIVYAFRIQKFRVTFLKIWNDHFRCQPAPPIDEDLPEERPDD
Description: Intracellular calcium mobilization, HEK293 cells expressing recombinant A1AR (CCPA). It is filed as cell-based.

The test system of assay [4] is P2Y1 receptor. The arrangement: method as in PMID 26954502. Particulars: FR at 100 and 300 nM; cited from earlier work.
Assay [5] deals with A1AR. Particulars: FR 100 nM; small but significant; cited from earlier work.
Assay [6] deals with T4, P2Y1R (Homo sapiens, UniProt P47900). Briefly: Intracellular calcium mobilization, HEK293 cells, native P2Y1R (MRS2365). It is filed as cell-based.
T4 sequence (P47900 whole entry): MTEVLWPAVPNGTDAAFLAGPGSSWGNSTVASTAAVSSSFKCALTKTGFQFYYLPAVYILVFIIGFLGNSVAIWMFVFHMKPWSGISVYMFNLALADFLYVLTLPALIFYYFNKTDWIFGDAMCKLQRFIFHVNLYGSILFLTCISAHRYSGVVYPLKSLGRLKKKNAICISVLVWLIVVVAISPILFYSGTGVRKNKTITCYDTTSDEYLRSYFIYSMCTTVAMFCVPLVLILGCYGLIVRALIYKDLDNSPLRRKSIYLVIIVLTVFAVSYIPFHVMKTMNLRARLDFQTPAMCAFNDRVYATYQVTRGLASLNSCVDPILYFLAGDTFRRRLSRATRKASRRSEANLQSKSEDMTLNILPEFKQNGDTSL
In assay [7] the test system is P2Y1 receptor. Further details: method as in PMID 26954502. Particulars: FR at both 100 and 300 nM; cited from earlier work.
The next assay relates to P2Y12 receptor. Further details: method as in PMID 26954502. Conditions: overexpressed in CHO or 1321N1 astrocytoma cells; FR 100 nM; cited from earlier work.
The target in assay [8] is T3, A1AR. Briefly: cAMP accumulation, HEK293 cells, A1AR-mediated inhibition of forskolin-stimulated cAMP (CCPA). It is filed as cell-based. Here is the method: as §1
Assay [9] relates to M3 acetylcholine receptor. Further details: method as in PMID 26954502. Conditions: FR at 100 and 300 nM; cited from earlier work.
In assay [10] the test system is A1AR. Particulars: CHO cells; FR 300 nM; cited from earlier work.
Assay [11] relates to M3 acetylcholine receptor. Further details: method as in PMID 26954502. Particulars: FR at both 100 and 300 nM; cited from earlier work.
The test system of assay [12] is A1AR. Conditions: overexpressed in CHO or 1321N1 astrocytoma cells; FR 100 nM; cited from earlier work.
Assay [13] deals with T4, P2Y1R. Description: Intracellular calcium mobilization, T24 bladder cancer cells, native P2Y1R (MRS2365). It is filed as cell-based. Conditions: YM 300 nM, FR 300 nM, PTX 200 ng/ml overnight.
In assay [14] the test system is M2 muscarinic acetylcholine receptor. Particulars: overexpressed in CHO or 1321N1 astrocytoma cells; FR 100 nM; cited from earlier work.
Assay [15] relates to A1AR. Particulars: FR 100 nM; cited from earlier work.
For assay [16], the target named is T1, A2BAR. The arrangement: method as in PMID 24853985. Conditions: T24 cells; cited from earlier work.

Entries after “also recorded” stand apart in the source; their conditions may differ. Read-outs that look alike come from different tables or passages of the source. *1 amine or outer side, *2 acyl side, *3 side chain or, on linkers, in order; H or OH if unused. Where a SMILES comes first, the peptide text is derived from it. Bridges are numbered along the chain shown (N, C = ends). [ ]: non-standard residue; d: D form. The star is where a group is joined. Leu(3R-OH,Nα-propionyl) = CCC(=O)N[C@H](C(=O)*)[C@H](O)C(C)C; X1 = CC(C)[C@@H](O[*:3])[C@H](N[*:1])C(=O)[*:2]; NMeT = CN[C@H](C(=O)O)[C@@H](C)O; dPhLac = O=C(O)[C@H](O)Cc1ccccc1; NMeA = CN[C@@H](C)C(=O)O; NMeDha = C=C(NC)C(=O)O

In the case of Cholera toxin [CTX], the “Sensitivity of NECA-induced Ca2+ increase to toxin” value in assay [1] is “^c NECA-induced Ca^2+ increase in human erythroleukemia cells was sensitive to CTX, Feoktistov et al., 1994 [31]”; with HMC-1 cells it was “^b NECA-induced Ca^2+ increase in HMC-1 cells was insensitive to CTX and PTX, Feoktistov et al., 1995 [30]”. At A2BAR [2], the “Effect on native A2BAR (NECA)-triggered calcium mobilization” value is listed as “CTX sensitive (5), Variable, depending on cell type^b, c”. Further, the “Effect on formoterol-induced calcium mobilization (β2-adrenergic receptor)” value at β2-adrenergic receptor is “effect larger than it was on the NECA-induced Ca^2+ response; also recorded: CTX sensitive (6)”.
For `C=C1C(=O)N[C@@H](C)C(=O)N(C)[C@@H](C)C(=O)N[C@@H]([C@H](OC(=O)[C@@H](NC(=O)CC)[C@H](O)C(C)C)C(C)C)C(=O)N(C)[C@@H]([C@@H](C)OC)C(=O)O[C@H](C(C)C)[C@H](NC(C)=O)C(=O)O[C@H](Cc2ccccc2)C(=O)N1C` [FR, FR900359] (Ac-[X1][dPhLac][NMeDha]A[NMeA][X1](Leu(3R-OH,Nα-propionyl))[NMeT](Me); ester 1-C), the “Effect on A2BAR-Gαs-mediated cAMP accumulation” value with A2B adenosine receptor is given as “no effect”. The “Effect on A2AAR-mediated stimulation of cAMP accumulation” value at A2AAR was “did not affect”. In addition, the “Effect on A1AR (CCPA)-mediated calcium mobilization” value on A1AR [3] (HEK293 cells overexpressing A1AR, Gq/11 siRNA 250 nM, PTX 200 ng/ml overnight, FR, YM 20 min before agonist) is “inhibited; also recorded: YM and FR – fully sensitive (2)”. Further, the half-inhibitory concentration (IC50) turned out to be 8.66 ± 3.23 nM on A1AR [3] (HEK293 cells, overexpressed A1AR, agonist CCPA 1 µM, read-out: IC50 for inhibition of A1AR-mediated calcium mobilization) and 13.2 ± 3.2 nM on P2Y1R [6] (agonist MRS2365 1 µM, read-out: IC50 to inhibit P2Y1R-mediated calcium mobilization). In the assay with P2Y1 receptor [4], the “Effect on calcium response triggered by the P2Y1 receptor” value is on record as “completely inhibited”. The “Inhibition of A1AR-mediated ERK1/2 activity” value in the assay with A1AR [5] is recorded as below 30%. Also, the “Effect on P2Y1R (MRS2365)-mediated calcium mobilization” value at P2Y1R [6] (Gq/11 siRNA 250 nM, PTX 200 ng/ml overnight, FR, YM 20 min before agonist) was “inhibited; also recorded: fully sensitive”. Further, the “Effect on native A2BAR (NECA)-triggered calcium mobilization” value on A2BAR [2] (T24 cells, YM 300 nM, FR 300 nM, PTX 200 ng/ml, CTX 500 ng/ml overnight, other inhibitors 20 min before NECA) was “FR and YM insensitive (4); Gαq/11 siRNA insensitive (4)”. For the same molecule, in the assay with P2Y1 receptor [7], the “Effect on ERK1/2 activity triggered by the P2Y1 receptor” value is “only partially inhibited”. Besides, the “Effect on Giβγ-mediated calcium mobilization, or IP1 accumulation, upon P2Y12R activation” value in the assay with P2Y12 receptor is listed as “nearly complete inhibition”. Besides, the “Effect on isoproterenol-induced calcium mobilization (β2-adrenergic receptor)” value on β2-adrenergic receptor (T24 cells, FR 300 nM, PMA 1 µM) is on record as “diminished”. Besides, the “Effect on formoterol-induced calcium mobilization (β2-adrenergic receptor)” value at β2-adrenergic receptor (T24 cells, FR 300 nM, YM 1 µM, PTX 200 ng/ml, CTX 500 ng/ml, PMA 1 µM) is on record as “diminished”. Also, the “Effect on A1AR-mediated inhibition of cAMP accumulation” value at A1AR [8] is on record as “did not affect”. Further, in assay [9], the “Effect on calcium response triggered by the M3 acetylcholine receptor” value was “completely inhibited”. The “Effect on A1AR-Gαi-mediated inhibition of forskolin-stimulated cAMP accumulation” value in the assay with A1AR [10] is on record as “no effect”. Also, the “Effect on ERK1/2 activity triggered by the M3 acetylcholine receptor” value in assay [11] is reported as “only partially inhibited”. Further, in the assay with A1AR [12], the “Effect on Giβγ-mediated calcium mobilization, or IP1 accumulation, upon A1AR activation” value is reported as “nearly complete inhibition”. Moreover, the “Effect on native P2Y1R (MRS2365)-triggered calcium mobilization” value at P2Y1R [13] was “completely inhibited”. For the same molecule, the “Effect on Giβγ-mediated calcium mobilization, or IP1 accumulation, upon M2 receptor activation” value in [14] is reported as “nearly complete inhibition”. Besides, in the assay with A1AR [15], the “Effect on A1AR-mediated Akt1/2/3 phosphorylation” value was “no effect”.
On to `CCCn1c(=O)[nH]c2nc(-c3ccc(S(=O)(=O)N4CCN(c5ccc(Cl)cc5)CC4)cc3)[nH]c2c1=O` [PSB603], for which the “Effect on native A2BAR (NECA)-triggered calcium mobilization” value on A2BAR [2] is “completely inhibited”. On A2BAR [16], the “Effect on NECA-induced Ca2+ increase” value is given as “completely blocked”.

The IC50 is the concentration that gives 50% inhibition.
